Results reported in ChEMBL document CHEMBL4308857, “Leishmania treatment and prevention: Natural and synthesized drugs” (Eur J Med Chem, 2018).
Values after ≈ are worked out from the molar mass of the structure shown.

Legend:
Leishmania amazonensis [1] = test: Antileishmanial activity against Leishmania amazonensis axenic amastigotes; format: functional, organism-based
Leishmania amazonensis [2] = test: Antileishmanial activity against Leishmania amazonensis promastigotes; format: functional, organism-based
Leishmania amazonensis [3] = test: Antileishmanial activity against Leishmania amazonensis promastigotes assessed as reduction in parasitic growth after 5 to 7 days by Neubauer chamber analysis; format: functional, organism-based
Leishmania donovani [4] = test: Antileishmanial activity against Leishmania donovani MHOM/ET/ 67/L82 amastigotes infected in BALB/c mouse assessed as reduction in parasitic load in liver at 100 mg/kg, sc qd administered for 5 days measured at 3 days post last dose relative to control; format: functional; design: scale not given: the % may be the effect or the level left
Leishmania amazonensis [5] = test: Antileishmanial activity against Leishmania amazonensis MHOM/BR/75/Josefa intracellular amastigotes after 72 hrs by Neubauer hemocytometric analysis; format: functional, organism-based
Leishmania amazonensis [6] = test: Antileishmanial activity against Leishmania amazonensis MHOM/BR/75/Josefa axenic amastigotes after 72 hrs by Neubauer hemocytometric analysis; format: functional, organism-based
Leishmania amazonensis [7] = test: Antileishmanial activity against Leishmania amazonensis MHOM/BR/75/Josefa promastigotes after 72 hrs by Neubauer hemocytometric analysis; format: functional, organism-based
[8] = tested on: Leishmania mexicana venezuelensis; test: Antileishmanial activity against Leishmania venezuelensis MHOM/VE/74/PM-H3 amastigotes infected in BALB/c mouse assessed as reduction in parasitic load in footpad at 14 to 56 mg/kg, sc bid treated for 15 days at interval of 4 days and measured at 1 week post last dose by Giemsa staining-based inverted microscopic analysis relative to control; format: functional; design: scale not given: the % may be the effect or the level left
Leishmania donovani [9] = test: Antileishmanial activity against Leishmania donovani promastigotes after 48 hrs by MTT assay; format: functional, organism-based
Leishmania donovani [10] = test: Antileishmanial activity against Leishmania donovani amastigotes infected in mouse J774G8 cells after 48 to 72 hrs by Giemsa staining-based bright-field microscopic analysis; format: functional, organism-based
[11] = tested on: Mycobacterium tuberculosis; test: Antitubercular activity against Mycobacterium tuberculosis H37Rv ATCC 27294 after 7 to 10 days by Resazurin microtiter assay; format: functional, organism-based
Leishmania infantum [12] = test: Antileishmanial activity against zymodemes of Leishmania infantum MCAN/ES/90/DP204 promastigotes by Neubauer chamber analysis; format: functional, organism-based
Leishmania major [13] = test: Antileishmanial activity against Leishmania major amastigotes; format: functional, organism-based
Leishmania aethiopica = test: Antileishmanial activity against Leishmania aethiopica amastigotes; format: functional, organism-based
Leishmania donovani [14] = test: Antileishmanial activity against Leishmania donovani […]/IN/80/DD8 promastigotes after 72 hrs by MTT assay; format: functional, organism-based; details: […]/IN/80/DD8, 72 h
Leishmania amazonensis [15] = test: Antileishmanial activity against Leishmania amazonensis MHOM/BR/76/LTB-012 axenic amastigotes after 72 hrs by MTT assay; format: functional, organism-based; details: MHOM/BR/76/LTB-012, 72 h
Leishmania amazonensis [16] = test: Antileishmanial activity against Leishmania amazonensis […]/BR/75/Josefa axenic amastigotes infected in mouse J774A1 cells; format: functional, organism-based; details: J774.A1
Leishmania amazonensis [17] = test: Antileishmanial activity against Leishmania amazonensis […]/BR/75/Josefa promastigotes; format: functional, organism-based
Leishmania amazonensis [18] = test: Antileishmanial activity against Leishmania amazonensis MHOM/BR/77/LTB0016 promastigotes after 24 hrs; format: functional, organism-based; details: MHOM/BR/77/LTB0016, 24 h
[19] = Cytotoxicity against BALB/c mouse peritoneal cells assessed as reduction in cell viability after 24 hrs by MTT assay; format: cell-based
Leishmania infantum [20] = test: Antileishmanial activity against Leishmania infantum MCAN/BR/97/P142 promastigotes after 24 hrs; format: functional, organism-based; details: MCAN/BR/97/P142, 24 h
Leishmania donovani [21] = test: (§1) Antileishmanial activity against Leishmania donovani promastigotes infected in golden hamster assessed as reduction in parasitic load in spleen at 3.5 mg/kg, po administered 2 times a week for 4 weeks starting at 4 days post-infection measured 1 week post last dose by Giemsa staining-based assay relative to control; format: functional; design: scale not given: the % may be the effect or the level left
Leishmania panamensis = test: Antileishmanial activity against GFP-fused Leishmania panamensis MHOM/CO/87/UA140pIR amastigotes infected in human U937 cells after 72 hrs by flow cytometric analysis; format: functional, organism-based; details: U-937, 72 h
[22] = Cytotoxicity against human U937 cells assessed as reduction in cell viability after 72 hrs by MTT assay; format: cell-based, U-937; details: read-out: LD50
Leishmania donovani [23] = test: Antileishmanial activity against Leishmania donovani intracellular amastigotes infected in mouse J774A.1 cells by flow cytometry; format: functional, organism-based; details: J774.A1
Leishmania mexicana [24] = test: Antileishmanial activity against Leishmania mexicana LV4 amastigotes infected in BALB/c bone marrow-derived macrophages assessed as reduction in cell viability after 2 hrs by trypan blue staining based bright-field microscopic analysis; format: functional, organism-based; details: LV4, 2 h
Leishmania mexicana [25] = test: Antileishmanial activity against Leishmania mexicana LV4 promastigotes; format: functional, organism-based
Leishmania amazonensis [26] = test: Antileishmanial activity against Leishmania amazonensis MCAN/ES/92/BCN83 axenic amastigotes infected in BALB/c mouse assessed as reduction in parasitic burden at 10 mg/kg, ip administered as daily dose for 3 continuous days and measured at day 5 post last dose by limit dilution assay relative to control; format: functional; design: scale not given: the % may be the effect or the level left
Leishmania donovani [27] = test: as §1, with “14” for “3.5”; format: functional; design: scale not given: the % may be the effect or the level left
Leishmania donovani [28] = test: Antileishmanial activity against wild type Leishmania donovani LV9 promastigotes by MTT assay; format: functional, organism-based
Leishmania donovani [29] = test: Antileishmanial activity against Leishmania donovani promastigotes infected in hamster assessed as reduction in parasitic load in liver at 20 mg/kg, ip treated for 6 consecutive days measured at day 8 post last dose by 3H-thymidine incorporation assay relative to control; format: functional; design: scale not given: the % may be the effect or the level left
Leishmania donovani [30] = test: Antileishmanial activity against Leishmania donovani MHOM/SD/00/1SD2D axenic amastigotes infected in human peripheral blood mononuclear cells after 3 days by 3H-thymidine incorporation assay; format: functional, organism-based
Leishmania donovani [31] = test: Antileishmanial activity against Leishmania donovani promastigotes infected in hamster assessed as reduction in parasitic load in spleen at 20 mg/kg, ip treated for 6 consecutive days measured at day 8 post last dose by 3H-thymidine incorporation assay relative to control; format: functional; design: scale not given: the % may be the effect or the level left
Leishmania major [32] = test: Antileishmanial activity against Leishmania major MHOM/IL/67/LRC-L137 promastigotes after 2 hrs by 3H-thymidine incorporation assay; format: functional, organism-based

Cc1cccc(-c2ccn(S(=O)(=O)c3ccccc3)n2)c1NS(=O)(=O)c1ccccc1
IC50 (Leishmania amazonensis [1]): 56 µM
IC50 (Leishmania amazonensis [2]): 6.7 µM

C[C@@]12C[C@H]3OC(=O)[C@@H]1CO[C@]14O[C@@]5([C@H]2C1=O)[C@@]3(C)OC(=O)[C@@]5(O)CC[C@H]1[C@H]4C[C@H]2O[C@]23CC=CC(=O)[C@]13C
IC50 (Leishmania amazonensis [3]): 1.4 µM

CC(=O)O[C@@]12CO[C@@H]1C[C@H](O)[C@@]1(C)C(=O)[C@H](O)C3=C(C)[C@@H](O)C[C@@](O)([C@@H](OC(=O)c4ccccc4)[C@H]21)C3(C)C
Activity (Leishmania donovani [4]): 42%

C/C=C/c1ccc2oc(-c3ccc(O)c(OC)c3)c(C)c2c1
IC50 (Leishmania amazonensis [5]): 5 µg/mL (≈ 17 µM)
IC50 (Leishmania amazonensis [6]): 13 µg/mL (≈ 44.2 µM)
IC50 (Leishmania amazonensis [7]): 9 µg/mL (≈ 30.6 µM)

C/C=C/c1ccc2ccccc2n1 [CHIMANINE B]
Activity [8]: 95%

C/C=C1\C(=O)O[C@]23C=C[C@@H]4C(C(=O)OC)=CO[C@H](O[C@@H]12)[C@@H]43 [ISOPLUMERICIN]
IC50 (Leishmania donovani [9]): 3.17 µM
IC50 (Leishmania donovani [10]): 1.41 µM

COC(=O)CC[C@@H](C)[C@H]1CC[C@H]2[C@@H]3[C@H](O)C[C@@H]4C[C@@H](n5cc(CNCCNc6ccnc7cc(Cl)ccc67)nn5)CC[C@]4(C)[C@H]3C[C@H](O)[C@]12C
IC50 [11]: 10.6 µM

CC(C)=CCC[C@@](C)(O)C1CC=C(C)CC1 (some centres not stated)
IC50 (Leishmania infantum [12]): 11 µg/mL (≈ 49.4 µM)

CC(C)c1nc2nc(N)nc(N)c2nc1C(C)C
IC50 (Leishmania major [13]): 0.5 µM

CCC(=O)N1N=C(c2ccccc2)CC1c1cn(-c2ccccc2)nc1-c1ccc(C)cc1 (configuration not stated)
IC50 (Leishmania aethiopica): 0.112 µg/mL (≈ 0.258 µM)

COc1ccc(C(c2c(O)c3ccccc3oc2=O)c2c(O)c3ccccc3oc2=O)c(OC)c1
IC50 (Leishmania donovani [14]): 158 µg/mL (≈ 333 µM)

O=C1C2=C(CCCC2)C2=NCCc3cccc1c32
IC50 (Leishmania amazonensis [15]): 0.025 µM

C/C=C1/C(=O)O[C@]23C=C[C@@H]4C(C(=O)OC)=CO[C@H](O[C@@H]12)[C@@H]43 [PLUMERICIN]
IC50 (Leishmania donovani [9]): 7.2 µM
IC50 (Leishmania donovani [10]): 4.1 µM

CCCCNC(=O)c1cc2c([nH]c3ccccc32)c(-c2ccc(OC)cc2)n1
IC50 (Leishmania amazonensis [16]): 12.5 µM
IC50 (Leishmania amazonensis [17]): 4.44 µM

Cc1nn(-c2ccc(S(=O)(=O)Nc3ccc(Cl)cc3)cc2)c(Cl)c1Br
IC50 (Leishmania amazonensis [18]): 0.072 µM
CC50 at 24 h [19]: 116 µM
IC50 (Leishmania infantum [20]): 0.065 µM

O=c1oc2ccccc2c(O)c1C(c1ccccc1)c1c(O)c2ccccc2oc1=O
IC50 (Leishmania donovani [14]): 155 µg/mL (≈ 376 µM)

O=c1cc(-c2ccc(O)c(O)c2)oc2cc(O)cc(O)c12 [LUTEOLIN]
Activity (Leishmania donovani [21]): <=90%

O=c1ccoc2cc(OCCCCOc3cc(Cl)ccc3Oc3ccc(Cl)cc3Cl)ccc12
EC50 (Leishmania panamensis): 7.5 µg/mL (≈ 14.8 µM)
CC50 at 72 h [22]: 15.8 µg/mL (≈ 31.2 µM)

Cc1nn(-c2ccc(S(=O)(=O)Nc3ccccc3)cc2)c(Cl)c1Br
CC50 at 24 h [19]: 144 µM

c1ccc2c(c1)Sc1ccccc1S2 [THIANTHRENE]
IC50 (Leishmania donovani [23]): 23 µM

Cc1cc(=O)oc2cc(OCCCCOc3cc(Cl)ccc3Oc3ccc(Cl)cc3Cl)ccc12
EC50 (Leishmania panamensis): 27.5 µg/mL (≈ 52.9 µM)
CC50 at 72 h [22]: > 200 µg/mL

C=CCCCCC/C=C\CC#CC#C[C@@H](O)C=C
IC50 (Leishmania mexicana [24]): 0.48 µM
IC50 (Leishmania mexicana [25]): 0.55 µM

O=C1c2ccccc2C2=NCCc3cccc1c32
Activity (Leishmania amazonensis [26]): <=90%
IC50 (Leishmania amazonensis [15]): < 0.05 µM

O=c1c(O)c(-c2ccc(O)c(O)c2)oc2cc(O)cc(O)c12 [QUERCETIN]
Activity (Leishmania donovani [27]): <=90%

COc1cc(OC)c(C(c2c(O)c3ccccc3oc2=O)c2c(O)c3ccccc3oc2=O)c(OC)c1
IC50 (Leishmania donovani [14]): 150 µg/mL (≈ 299 µM)

COc1ccc(N[C@]2(C(F)(F)F)O[C@@H]3O[C@@]4(C)CC[C@H]5[C@H](C)CC[C@@H]([C@H]2C)[C@@]35OO4)cc1
IC50 (Leishmania donovani [28]): 1.5 µM

C=CC(C)(C)c1cc(/C=C/C(=O)c2ccc(O)cc2)c(OC)cc1O [LICOAGROCHACONE A]
Activity (Leishmania donovani [29]): >90%
IC50 (Leishmania donovani [30]): 0.9 µg/mL (≈ 2.66 µM)
Activity (Leishmania donovani [31]): >90%
IC50 (Leishmania major [32]): 7.2 µg/mL (≈ 21.3 µM)
